The values that follow come from patent publication US9346786B2, “Pyrrolidine compounds” (Hoffmann-La Roche Inc., priority 2009, dated 2016).

Sequence of recombinant human NK3 receptor (P29371 whole entry): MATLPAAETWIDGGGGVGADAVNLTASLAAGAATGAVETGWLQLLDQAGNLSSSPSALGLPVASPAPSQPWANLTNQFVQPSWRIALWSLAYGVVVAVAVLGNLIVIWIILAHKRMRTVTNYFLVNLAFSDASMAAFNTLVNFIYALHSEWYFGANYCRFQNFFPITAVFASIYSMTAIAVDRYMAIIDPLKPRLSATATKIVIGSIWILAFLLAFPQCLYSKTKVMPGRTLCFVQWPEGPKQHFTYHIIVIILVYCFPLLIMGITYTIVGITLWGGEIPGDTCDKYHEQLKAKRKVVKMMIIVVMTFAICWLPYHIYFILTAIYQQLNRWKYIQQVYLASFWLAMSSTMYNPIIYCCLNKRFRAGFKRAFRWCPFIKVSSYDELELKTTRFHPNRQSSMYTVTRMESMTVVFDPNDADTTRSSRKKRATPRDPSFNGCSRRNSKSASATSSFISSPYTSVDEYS

The first assay has as its target recombinant human NK3 receptor (Homo sapiens (Human), UniProt P29371). Description: biochemical. Format: binding. The conditions noted are these: [3H]SR142801, membranes of HEK293 cells transiently expressing recombinant human NK3 receptor; read-out: Data Ki (hNK-3 receptor affinity).
`CCN(C(=O)Oc1ccc(F)cc1)[C@@H]1CN(C(=O)C2CCN(C(=O)C3(C(F)(F)F)CCC3)CC2)C[C@H]1c1ccc(Cl)c(F)c1` [Example 68, {(3S,4R)-4-(4-Chloro-3-fluoro-phenyl)-1-[1-(1-trifluoromethyl-cyclobutanecarbonyl)-piperidine-4-carbonyl]-pyrrolidin-3-yl}-ethyl-carbamic acid 4-fluoro-phenyl ester]: the Ki is 2 nM. `CCN(C(=O)Oc1ccc(F)cc1)[C@H]1CN(C(=O)C2CCN(c3ccc(S(C)(=O)=O)cn3)CC2)C[C@@H]1c1ccc(Cl)cc1` [Example 10, [(3R,4S)-4-(4-Chloro-phenyl)-1-(5′-methanesulfonyl-3,4,5,6-tetrahydro-2H-[1,2′]bipyridinyl-4-carbonyl)-pyrrolidin-3-yl]-ethyl-carbamic acid 4-fluoro-phenyl ester]: the Ki was 65 nM. As to `CCN(C(=O)Oc1ccc(F)cc1)[C@@H]1CN(C(=O)C2CCN(c3ccc(Cl)cn3)CC2)C[C@H]1c1ccc(Cl)cc1` [Example 110, [(3S,4R)-4-(4-Chloro-phenyl)-1-(5′-chloro-3,4,5,6-tetrahydro-2H-[1,2′]bipyridinyl-4-carbonyl)-pyrrolidin-3-yl]-ethyl-carbamic acid 4-fluoro-phenyl ester], the Ki was 4.8 nM. As to `CCN(C(=O)Oc1ccc(F)cc1)[C@@H]1CN(C(=O)C2CCN(S(C)(=O)=O)CC2)C[C@H]1c1ccc(Cl)c(F)c1` [Example 81, [(3S,4R)-4-(4-Chloro-3-fluoro-phenyl)-1-(1-methanesulfonyl-piperidine-4-carbonyl)-pyrrolidin-3-yl]-ethyl-carbamic acid 4-fluoro-phenyl ester], the inhibition constant Ki came to 29 nM. Take `CCN(C(=O)Oc1ccc(F)cc1)[C@@H]1CN(C(=O)C2CCC(=O)N(C(C)C)C2)C[C@H]1c1ccc(Cl)c(F)c1` (stereo partly drawn) [Example 105, [(3S,4R)-4-(4-Chloro-3-fluoro-phenyl)-1-(1-isopropyl-6-oxo-piperidine-3-carbonyl)-pyrrolidin-3-yl]-ethyl-carbamic acid 4-fluoro-phenyl ester]: the Ki was determined as 31.2 nM.

Turning to `CCN(C(=O)Oc1ccc(F)cc1)[C@H]1CN(C(=O)C2CCN(c3ccc(C#N)cn3)CC2)C[C@@H]1c1ccc(Cl)cc1` [Example 22, [(3R,4S)-4-(4-Chloro-phenyl)-1-(5′-cyano-3,4,5,6-tetrahydro-2H-[1,2′]bipyridinyl-4-carbonyl)-pyrrolidin-3-yl]-ethyl-carbamic acid 4-fluoro-phenyl ester], the Ki was found to be 25 nM. Regarding `CCN(C(=O)Oc1ccc(F)cc1)[C@@H]1CN(C(=O)C2CCN(c3ccc(C#N)cn3)CC2)C[C@H]1c1ccc(F)c(F)c1` [Example 48, [(3S,4R)-1-(5′-Cyano-3,4,5,6-tetrahydro-2H-[1,2′]bipyridinyl-4-carbonyl)-4-(3,4-difluoro-phenyl)-pyrrolidin-3-yl]-ethyl-carbamic acid 4-fluoro-phenyl ester], the inhibitory constant (Ki) amounted to 2 nM. Take `CCN(C(=O)Oc1ccc(F)cc1)[C@@H]1CN(C(=O)C2CCN(C(=O)C3(C(F)(F)F)CC3)CC2)C[C@H]1c1ccc(Cl)cc1` [Example 95, {(3S,4R)-4-(4-Chloro-phenyl)-1-[1-(1-trifluoromethyl-cyclopropanecarbonyl)-piperidine-4-carbonyl]-pyrrolidin-3-yl}-ethyl-carbamic acid 4-fluoro-phenyl ester]: the Ki worked out at 6.1 nM. Turning to `CCN(C(=O)Oc1ccc(F)cc1)[C@@H]1CN(C(=O)C2CCN(C(C)=O)CC2)C[C@H]1c1ccc(Cl)c(F)c1` [Example 80, [(3S,4R)-1-(1-Acetyl-piperidine-4-carbonyl)-4-(4-chloro-3-fluoro-phenyl)-pyrrolidin-3-yl]-ethyl-carbamic acid 4-fluoro-phenyl ester], the Ki turned out to be 2 nM. On to `CCN(C(=O)Oc1ccc(F)cc1)[C@@H]1CN(C(=O)C2CCN(C(=O)C3(C)COC3)CC2)C[C@H]1c1ccc(Cl)c(F)c1` [Example 65, {(3S,4R)-4-(4-Chloro-3-fluoro-phenyl)-1-[1-(3-methyl-oxetane-3-carbonyl)-piperidine-4-carbonyl]-pyrrolidin-3-yl}-ethyl-carbamic acid 4-fluoro-phenyl ester], for which the Ki came to 3 nM. On to `CCN(C(=O)Oc1ccc(F)cc1)[C@@H]1CN(C(=O)C2CCN(c3ccc(C#N)cn3)CC2)C[C@H]1c1ccc(Cl)c(F)c1` [Example 40, [(3S,4R)-4-(4-Chloro-3-fluoro-phenyl)-1-(5′-cyano-3,4,5,6-tetrahydro-2H-[1,2′]bipyridinyl-4-carbonyl)-pyrrolidin-3-yl]-ethyl-carbamic acid 4-fluoro-phenyl ester], for which the Ki was 0.7 nM. Regarding `CCN(C(=O)Oc1ccc(F)cc1)[C@@H]1CN(C(=O)C2CCN(C(=O)C3CC(F)(F)C3)CC2)C[C@H]1c1ccc(Cl)c(F)c1` [Example 66, {(3S,4R)-4-(4-Chloro-3-fluoro-phenyl)-1-[1-(3,3-difluoro-cyclobutanecarbonyl)-piperidine-4-carbonyl]-pyrrolidin-3-yl}-ethyl-carbamic acid 4-fluoro-phenyl ester], the Ki worked out at 1 nM. Take `CCN(C(=O)Oc1ccc(F)cc1)[C@@H]1CN(C(=O)C2CCN(C(=O)C3CC3(F)F)CC2)C[C@H]1c1ccc(Cl)c(F)c1` (stereo partly drawn) [Example 70, {(3S,4R)-4-(4-Chloro-3-fluoro-phenyl)-1-[1-(2,2-difluoro-cyclopropanecarbonyl)-piperidine-4-carbonyl]-pyrrolidin-3-yl}-ethyl-carbamic acid 4-fluoro-phenyl ester]: the Ki amounted to 4 nM. Turning to `CCN(C(=O)Oc1ccc(F)cc1)[C@@H]1CN(C(=O)C2CCN(c3ccc(Cl)cn3)CC2)C[C@H]1c1ccc(Cl)c(Cl)c1` [Example 113, [(3S,4R)-1-(5′-Chloro-3,4,5,6-tetrahydro-2H-[1,2′]bipyridinyl-4-carbonyl)-4-(3,4-dichloro-phenyl)-pyrrolidin-3-yl]-ethyl-carbamic acid 4-fluoro-phenyl ester], the inhibitory constant (Ki) is 0.5 nM. As to `CC1(C(=O)N2CCC(C(=O)N3C[C@@H](N(C(=O)Oc4ccc(F)cc4)C4CC4)[C@H](c4ccc(Cl)c(Cl)c4)C3)CC2)CC1` (racemic) [Example 4, rac-{(3S,4R)-4-(3,4-Dichloro-phenyl)-1-[1-(1-methyl-cyclopropanecarbonyl)-piperidine-4-carbonyl]-pyrrolidin-3-yl}-cyclopropyl-carbamic acid 4-fluoro-phenyl ester], the Ki came to 10 nM.

On to `CCN(C(=O)Oc1ccc(F)cc1)[C@@H]1CN(C(=O)C2CCN(C(=O)[C@@H]3CC(=O)N3)CC2)C[C@H]1c1ccc(F)c(F)c1` [Example 106, {(3S,4R)-4-(3,4-Difluoro-phenyl)-1-[1-((S)-4-oxo-azetidine-2-carbonyl)-piperidine-4-carbonyl]-pyrrolidin-3-yl}-ethyl-carbamic acid 4-fluoro-phenyl ester], for which the Ki was 66 nM. Consider `CCN(C(=O)Oc1ccc(F)cc1)[C@@H]1CN(C(=O)C2CCN(C(=O)C3(C)CC3)CC2)C[C@H]1c1ccc(F)c(F)c1` [Example 52, {(3S,4R)-4-(3,4-Difluoro-phenyl)-1-[1-(1-methyl-cyclopropanecarbonyl)-piperidine-4-carbonyl]-pyrrolidin-3-yl}-ethyl-carbamic acid 4-fluoro-phenyl ester], for which the Ki was 15 nM. With `CC(C)N(C(=O)Oc1ccc(F)cc1)[C@@H]1CN(C(=O)C2CCN(c3ccc(C#N)cn3)CC2)C[C@H]1c1ccc(Cl)cc1` [Example 23, [(3S,4R)-4-(4-Chloro-phenyl)-1-(5′-cyano-3,4,5,6-tetrahydro-2H-[1,2′]bipyridinyl-4-carbonyl)-pyrrolidin-3-yl]-isopropyl-carbamic acid 4-fluoro-phenyl ester], the Ki was determined as 21 nM. Same read-out and setting: the result for `CCN(C(=O)Oc1ccc(F)cc1)[C@@H]1CN(C(=O)C2CCN(C(=O)c3cnc(C(F)(F)F)cn3)CC2)C[C@H]1c1ccc(Cl)c(F)c1` [Example 78, {(3S,4R)-4-(4-Chloro-3-fluoro-phenyl)-1-[1-(5-trifluoromethyl-pyrazine-2-carbonyl)-piperidine-4-carbonyl]-pyrrolidin-3-yl}-ethyl-carbamic acid 4-fluoro-phenyl ester] reads 5 nM; that for `CCN(C(=O)Oc1ccc(F)cc1)[C@@H]1CN(C(=O)C2CCN(c3ccc(C#N)cn3)CC2)C[C@H]1c1ccc(Cl)cc1` [Example 21, [(3S,4R)-4-(4-Chloro-phenyl)-1-(5′-cyano-3,4,5,6-tetrahydro-2H-[1,2′]bipyridinyl-4-carbonyl)-pyrrolidin-3-yl]-ethyl-carbamic acid 4-fluoro-phenyl ester], 2 nM.

With `CCN(C(=O)Oc1ccc(F)cc1)[C@@H]1CN(C(=O)C2CCN(C(=O)[C@@H]3CC(=O)N3)CC2)C[C@H]1c1ccc(Cl)cc1` [Example 121, {(3S,4R)-4-(4-Chloro-phenyl)-1-[1-((S)-4-oxo-azetidine-2-carbonyl)-piperidine-4-carbonyl]-pyrrolidin-3-yl}-ethyl-carbamic acid 4-fluoro-phenyl ester], the Ki was found to be 16.9 nM.

Still in this assay, the particulars now being: read-out: Data Ki (hNK-3 receptor affinity).
As to `CCN(C(=O)Oc1ccc(F)cc1)[C@@H]1CN(C(=O)C2CCN(c3ccc(C)cn3)CC2)C[C@H]1c1ccc(F)c(F)c1` [Example 55, [(3S,4R)-4-(3,4-Difluoro-phenyl)-1-(5′-methyl-3,4,5,6-tetrahydro-2H-[1,2′]bipyridinyl-4-carbonyl)-pyrrolidin-3-yl]-ethyl-carbamic acid 4-fluoro-phenyl ester], the Ki is 9 nM.

In the case of `N#Cc1cnc(N2CCC(C(=O)N3C[C@@H](N(C(=O)Oc4ccc(F)cc4)C4CC4)[C@H](c4ccc(Cl)cc4)C3)CC2)cn1` [Example 33, {(3S,4R)-4-(4-Chloro-phenyl)-1-[1-(5-cyano-pyrazin-2-yl)-piperidine-4-carbonyl]-pyrrolidin-3-yl}-cyclopropyl-carbamic acid 4-fluoro-phenyl ester], the Ki is 48 nM.

Take `N#Cc1ccc(N2CCC(C(=O)N3C[C@@H](N(C(=O)Oc4ccc(F)cc4)C4CC4)[C@H](c4ccc(Cl)cc4)C3)CC2)nn1` [Example 32, {(3S,4R)-4-(4-Chloro-phenyl)-1-[1-(6-cyano-pyridazin-3-yl)-piperidine-4-carbonyl]-pyrrolidin-3-yl}-cyclopropyl-carbamic acid 4-fluoro-phenyl ester]: the Ki was 52 nM.
